In patent publication US8697839B2, “GQ protein competitive inhibitory polypeptides, preparation methods and uses thereof” (Third Military Medical University, priority 2008, dated 2014):
Marks after values point to notes of the source that are not given here.

Experiments:
[1] = tested on: cultured cardiocytes of the rats (hypertrophy induced by NE); test: protein content in rat cardiocyte hypertrophy induced by norepinephrine (Lowry method); assay type: cell-based, Wistar rats; conditions: for Protein content: 24 h, n = 6, x ± s; for effect on protein content in the hypertrophic cardiocyte induced by NE: polypeptide at 10 nmol/L
Excerpt: 1. Wistar rats 1-3 day postpartum (purchased from Center for Experimental Animal, Third Military Medical University) was used, sacrificed by cervical dislocation, and fixed on a dissecting table. The ventral skin of the corpus was disinfected with 2% iodine tincture and then 75% ethanol. The heart was removed, cutted into pieces of about 1-3 mm^3, digested repeatedly with a digestion solution containing 0.08% trypase, 0.02% EDTA, and 0.05% collogen. The cells were collected in DMEM containing 10% fetal bovine serum and cultured in an incubator at 37° C., 5% CO2.
2. The cardiocytes cultured for 48 h were subjected to replacement of the DMEM with a serum-free DMEM culture media and further cultured for 24 h before addition of a drug according to the following groups: • Normal control group; 10 μl of PBS was added. • Norepinephrine group; norepinephrine (NE, Serva Corporation, USA) was added at 1 μmol/L. • Polypeptide-dosed group: NE was added, while the corresponding polypeptide drug was added at 10 nmol/L.
(§1) 3. After addition of the drug, the cells were further cultured for 24 h and then the culture media was discarded. The culture was washed with PBS, followed by adding 0.5 ml of 5% trichloracetic acid per well, and left at 4° C. for 1 h. The precipitate was dissolved in 1 ml of 0.1 mol/L NaOH. The protein content was determined by Lowry method.

[2] = tested on: myocardial hypertrophy in mice induced by norepinephrine; test: myocardial hypertrophy in mice induced by norepinephrine; assay type: in vivo; conditions: for HI (heart index) / HW (heart weight) / LVI (left ventricular index or myocardial hypertrophy index) / LVW (left ventricular weight): x ± s
Method: Fifty of the mice used in the experiment (purchased from Center for Experimental Animals, Third Military Medical University) was assigned into five groups with 10 mice per group. The mice in the control group were administrated with 0.1% ascorbic acid-3 mg % potassium sodium tartrate-physiological saline, The mice in the model group were administrated with 0.1% ascorbic acid-6 mg % norepinephrine bitartrate-physiological saline (equivalent to 1.5 mg/kg NE); The mice in three dosing groups were administrated with the pentadecapeptide, the heptacosapeptide, and the pantapentacontapeptide at 30 μg/kg respectively, while administration of 0.1% ascorbic acid—6 mg % norepinephrine bitartrate—physiological saline. The administration was performed consecutively by intraperitoneal injection (ip), twice a day (bid), for 15 days. The dosing volumes for each group were 50 ml/kg. Then, the animals were sacrificed by cervical dislocation. The heart was removed by thoracotomy, washed with the chilled physiological saline to get rid of blood stain, blotted with filter paper, weighed on a scale. The atriums and the right ventricle were carefully removed (with the interventricular septum left), and the left ventricle was weighed.

[3] = tested on: myocardial hypertrophy in rats induced by norepinephrine; test: myocardial hypertrophy in rats induced by norepinephrine; assay type: in vivo, Wistar rats; conditions: for HI (heart index) / HW (heart weight) / LVI (left ventricular index or myocardial hypertrophy index) / LVW (left ventricular weight): n = 6, x ± s
Method: Thirty of Wistar rats were selected and assigned into five groups with 6 rats per group. The rats in the control group were administrated with 0.1% ascorbic acid-3 mg % potassium sodium tartrate-physiological saline; the rats in the model group were administrated with 0.1% ascorbic acid-6 mg % norepinephrine bitartrate-physiological saline; the rats in the three dosing groups were administrated with the pentadecapeptide, the heptacosapeptide, and the pantapentacontapeptide at 15 μg/kg respectively, while administration of norepinephrine. The dosing volume for each group was 33 ml/kg, and the administration was performed consecutively by ip, bid, for 20 days. At that time, the heart and left ventricle were weighed.

[4] = clinical dosage converted into the dosage in the mouse; cited from earlier work
[5] = tested on: hypertrophic cardiocyte induced by angiotensin II; test: protein content in rat cardiocyte hypertrophy induced by angiotensin II (Lowry method); assay type: cell-based; conditions: for effect on protein content in the cardiocyte in comparison with Ang II: polypeptide 10 nmol/L + Ang II; for Protein content: 24 h, n = 6, x ± s
Method: 1. The cardiocytes were cultured for 48 h in the same way as described above, then subjected to replacement of the DMEM with a serum-free DMEM culture media, and further cultured for 24 h before addition of a drug according to the following groups: normal control group: 10 μl of PBS was added; Ang II group; Ang II was added at 1 μmol/L; serial polypeptide-dosed group: Ang II was added, while each of the dodecapeptide, pentadecapeptide, heptacosapeptide, pantapentacontapeptide was added at 10 nmol/L.
as §1, with “2.” for “3.”

[6] = tested on: myocardial hypertrophy in rats induced by aortic coarctation; test: myocardial hypertrophy in rats induced by aortic coarctation; assay type: in vivo, Wistar rats; conditions: 15 μg/kg ip once a day, 3 weeks post operation; x ± SEM
Excerpt: Healthy male Wistar rats (purchased from Center for Experimental Animals, Third Military Medical University) were randomly assigned into the following groups: the sham-operation group, operation model group (SRS), and polypeptide-dosing group. Before the operation, animals were fasted overnight and given Ad libitum access to water, and then anesthetized with pentobarbital sodium and underwent celiotomy. The abdominal aorta was separated, and a […] needle (0.80 mm outer diameter) was fastened along the abdominal aorta above the right renal artery with a silk suture before the needle was quickly removed. Then, the abdomen was closed by suturation. The rats in the sham operation group were subjected to the same treatment as the aforementioned, except no ligation with silk suture. From the first day post operation, the rats in the sham operation control group and in the operation model group were administrated with physiological saline at 7.5 ml/kg, ip, once a day; the rats in the dosing group were administrated with the pentadecapeptide, heptacosapeptide, and pantapentacontapeptide at 15 μg/kg respectively, ip, once a day. Rats were reared routinely for 3 weeks and then sacrificed. The heart was removed by thoracotomy, washed with the chilled physiological saline to get rid of blood stain, blotted with filter paper. The heart and the left ventricle were weighed on a scale.

[7] = tested on: rats with spontaneous hypertension (SHR); test: myocardial remodeling and blood pressure in rats with spontaneous hypertension (SHR); assay type: in vivo, rat; conditions: polypeptide 30 μg/kg ip bid, SHR, x ± s, n = 6
Method: 1. Thirty 13-week-old rats with spontaneous hypertension (SHR, purchased from Beijing Vital River Laboratory Animal Technology Co. Ltd., Beijing) were selected and randomly assigned into five groups with 6 rats per group:
SHR model group (Vehicle): 0.9% physiological saline, intraperitoneal injection at a dosage of 5 ml/kg, bid.
Positive control group (losartan): potassium losartan at a dosage of 6 mg/kg, intragastric administration, qd.
The pentadecapeptide group: administration of the pentadecapeptide at a dosage of 30 μg/kg by intraperitoneal injection, bid.
The heptacosapeptide group: administration of the heptacosapeptide at a dosage of 30 μg/kg by intraperitoneal injection, bid.
The pantapentacontapeptide group: administration of the pantapentacontapeptide at a dosage of 30 μg/kg by intraperitoneal injection, bid.
Six of INKY (Wistar-Kyoto) rats (purchased from Center for Experimental Animals, Third Military Medical University) were additionally selected as the normal control.
2. Intervention with the drug was performed consecutively for eight weeks (from Week 14 to Week 21). The body weights of all the tested rats were obtained once every two weeks, and the administration dosage was adjustedbased on body weights.

[8] = NE model group: equivalent to 1.5 mg/kg NE ip bid 15 days, alone
[9] = NE model group: 6 mg % norepinephrine bitartrate, 33 ml/kg ip bid 20 days, alone
[10] = polypeptide 10 nmol/L together with NE 1 μmol/L
[11] = polypeptide 10 nmol/L together with Ang II 1 μmol/L
[12] = polypeptide 30 μg/kg ip bid 15 days with NE
[13] = polypeptide 15 μg/kg ip bid 20 days with norepinephrine

With `NC[C@H](O)c1ccc(O)c(O)c1` [NE, norepinephrine, reference compound] the Protein content ([1]; NE group: NE 1000 nmol/L alone) was 121.0 ± 13.2 μg/10^5 cells, the “HI (heart index)” value [2, 8] was 4.82 ± 0.44 mg/g and the “HW (heart weight)” value [2, 8] was 112.1 ± 12.1 mg. For the same compound, the “LVI (left ventricular index or myocardial hypertrophy index)” value [2, 8] was 3.69 ± 0.36 mg/g, the “LVW (left ventricular weight)” value [2, 8] was 85.6 ± 9.16 mg and the “HI (heart index)” value [3, 9] was 3.674 ± 0.348 g/kg. For the same compound, the “HW (heart weight)” value [3, 9] was 0.690 ± 0.078 g, the “LVI (left ventricular index or myocardial hypertrophy index)” value [3, 9] was 2.954 ± 0.225 g/kg and the “LVW (left ventricular weight)” value [3, 9] was 0.555 ± 0.055 g.
For `C[C@H](CS)C(=O)N1CCC[C@H]1C(=O)O` [captopril], the “ratio of mouse LD50/routine dosage” value [4] is given as 388.
With “Dicosapeptide: SEQ ID NO: 7 (icosapeptide), obtained by deleting amino acid residues 1 to 35 at the N-terminal of SEQ ID NO: 1 (VFAAVKDTILQLNLKEYNLV; listed as Homo sapiens)” the Protein content [1, 10] was 103.4 ± 11.4 μg/10^5 cells and the “effect on protein content in the hypertrophic cardiocyte induced by NE” value (from here on “effect on protein content … by NE”) [1] was “significantly decrease”.
For “Dodecapeptide: SEQ ID NO: 10, obtained by deleting amino acid residues 1 to 43 at the N-terminal of SEQ ID NO: 1 (ILQLNLKEYNLV; listed as Homo sapiens)”, the Protein content [1, 10] was 113.3 ± 11.6 μg/10^5 cells, the “effect on protein content … by NE” value [1] was “no manifest effect” and the “effect on protein content in the cardiocyte in comparison with Ang II” value [5] was “no manifest effect”. For the same compound, the Protein content [5, 11] was 144.0 ± 11.7 μg/10^5 cells.
With “Heptadecapeptide: SEQ ID NO: 8, obtained by deleting amino acid residues 1 to 38 at the N-terminal of SEQ ID NO: 1 (AVKDTILQLNLKEYNLV; listed as Homo sapiens)” the Protein content [1, 10] was 96.4 ± 10.5 μg/10^5 cells and the “effect on protein content … by NE” value [1] was “significantly decrease”.
In the case of “Pentadecapeptide: SEQ ID NO: 9, obtained by deleting amino acid residues 1 to 40 at the N-terminal of SEQ ID NO: 1 (KDTILQLNLKEYNLV; listed as Homo sapiens)”, the Protein content [1, 10] is reported as 104.3 ± 12.6 μg/10^5 cells, the “effect on protein content … by NE” value [1] is reported as “significantly decrease” and the “effect on protein content in the cardiocyte in comparison with Ang II” value [5] is reported as “decrease the protein content in the cardiocyte in varying degrees”. The Protein content [5, 11] was 130.6 ± 10.79 μg/10^5 cells, the “decrease of heart weight” value ([2]; 30 μg/kg ip bid 15 days with NE, P>0.05) was 9.9% and the “HI (heart index)” value [2, 12] was 4.27 ± 0.42 mg/g. For the same compound, the “HW (heart weight)” value [2, 12] was 100.9 ± 12.8 mg, the “LVI (left ventricular index or myocardial hypertrophy index)” value [2, 12] was 3.16 ± 0.39 mg/g and the “LVW (left ventricular weight)” value [2, 12] was 74.7 ± 9.25 mg. For the same compound, the “effect on the left ventricular index” value ([3]; 15 μg/kg ip bid 20 days with norepinephrine) was “significantly decrease”, the “HI (heart index)” value [3, 13] was 3.580 ± 0.226 g/kg and the “HW (heart weight)” value [3, 13] was 0.673 ± 0.055 g. For the same compound, the “LVI (left ventricular index or myocardial hypertrophy index)” value [3, 13] was 2.606 ± 0.154 g/kg, the “LVW (left ventricular weight)” value [3, 13] was 0.490 ± 0.038 g and the HI [6] was 3.39 ± 0.10 mg/g. For the same compound, the HW [6] was 706 ± 30.8 mg, the LVI [6] was 2.01 ± 0.06 mg/g and the LVW [6] was 418 ± 12.3 mg. For the same compound, the “Systolic blood pressure of artery” value ([7]; 0 w) was 177.3 ± 6.42 mmHg, the “Systolic blood pressure of artery” value ([7]; 2 w) was 190.4 ± 7.75 mmHg and the “Systolic blood pressure of artery” value ([7]; 4 w) was 200.2 ± 4.13 mmHg. For the same compound, the “Systolic blood pressure of artery” value ([7]; 6 w) was 217.1 ± 8.82 mmHg, the “Systolic blood pressure of artery” value ([7]; 8 w) was 224.1 ± 6.37 mmHg and the “EF (ejection fraction)” value ([7]; echocardiography) was 89.4 ± 3.90%. The “FS (shortening fraction)” value ([7]; echocardiography) was 55.1 ± 4.33%, the “IVST (intervertricular septum thickness)” value ([7]; echocardiography) was 1.62 ± 0.20 mm and the “LAD (left atrium sinistrum diameter)” value ([7]; echocardiography) was 3.39 ± 0.33 mm. For the same compound, the “LVEDD (left ventricular end diastolic diameter)” value ([7]; echocardiography) was 5.38 ± 0.31 mm, the LVESD ([7]; echocardiography) was 2.41 ± 0.35 mm and the “PWT (left ventricular posterior wall thickness)” value ([7]; echocardiography) was 1.96 ± 0.16 mm. For the same compound, the “SV (stroke volume)” value ([7]; echocardiography) was 0.32 ± 0.05 mL, the HI ([7]; eight weeks) was 3.44 ± 0.05 mg/g and the HW ([7]; eight weeks) was 1055 ± 30 mg. For the same compound, the LVI ([7]; eight weeks) was 2.46 ± 0.04 mg/g, the LVW ([7]; eight weeks) was 775 ± 28 mg and the “CSA (cross section area of the cardiocyte)” value [7] was 329 ± 24** μm^2. The “TDM (trans diameter of the cardiocyte)” value [7] was 14.88 ± 2.56 μm.
In the case of “angiotensin II (DRVYIHPF; Angiotensin-2; UniProt P01019 25-32, looked up) [Ang II, inducer of cardiocyte hypertrophy, reference compound]”, the “protein content in the cardiocyte” value ([5]; Ang II added alone, vs 113.9±7.48 normal control, p<0.01) is reported as 143.2 ± 5.49 µg and the Protein content ([5]; Ang II group: Ang II 1000 nmol/L alone) is reported as 143.2 ± 5.49 μg/10^5 cells.
